# Counter-ions that a name gives are not always drawn.
# Legend:
# [1] = test system: mixed flora and gram-negativerods; assay: Diabetic patient with infected skin ulcer; type: in vivo; details: topical cream with S-nitrosoglutathione, oxidized glutathione and dinitrophenacyl glutathione
# Source text: A patient with diabetes develops a skin ulcer on the lower aspect of their left leg. Cultures grow mixed flora and gram-negativerods. A topical cream is applied that contains S-nitrosoglutathione, oxidized glutathione and the glutathione S-conjugate dinitrophenacyl glutathione.
# E. coli = assay: Patients with E. coli septicemia; type: in vivo
# Experimental: A person with fever, mild hypotension, and moderate hematuria has blood and urine cultures that are positive for E. coli. They are given a diagnosis of E. coli septicemia and urinary tract infection. […]
# A person with E. coli sepsis presents feeling nauseated and gravely ill. However, their blood pressure is stable. They receive a standard regimen of IV antibiotics, including ampicillin and gentamicin as well as the siderophore ferrioxamine B at a dose of 10 mg/kg.
# A person with E. coli sepsis presents with a blood pressure of 80/50 mm Hg. Broad spectrum antibiotics are initiated including ampicillin and gentamicin. […] The patient then receives an intravenous dose of nitrosated chloramphenicol, 12.5 mg four times/day IV together with methylene blue IV at a dose of 5 mg/kg as well as fluid support.
# restenosis [2] = assay: Patients with coronary stenosis treated to prevent restenosis; type: in vivo
# Source text: BSO therapy is continued for one week.
# A person with blue eyes and gray hair presents with chest pain. […] The patient undergoes balloon angioplasty and placement of a Palmaz-Schatz stent, which is P^32-implanted and coated with a cyclodextran polymer to which BSO is attached by an ester linkage.
# A patient similar to the one described above undergoes balloon angioplasty and placement of a Palmaz-Schatz stent which is coated with cyclodextran polymer to which ethyl maleate is attached by an ester linkage. […]
# A person with restenosis six months post angioplasty has a Palmaz-Schatz stent placed. The stent is coated with a porous polymer containing 10% of the siderophore ferrioxamine B and 0.1% each of interleukin-1 and interferon-gamma. The latter agents induce the local expression of the inducible isoform of nitric oxide synthase. […]
# [3] = test system: Mycobacterium tuberculosis; details: in vivo
# [4] = test system: wild type E. coli and glutathione deficient E. coli; assay: Bacterial growth (O.D. 600 nm) with nitrosating agent; type: cell-based
# Experimental: In a first experiment, six runs were carried out. In three of the runs, wild type E. coli were incubated in bacterial growth medium. In the other three runs, E. coli lacking a gene essential for glutathione production (in particular, lacking a gene expressing gamma-glutamylcysteine synthetase, hereinafter glutathione deficient E. coli) were incubated in the bacterial growth medium. In one run, for each of the wild type E. coli and the glutathione deficient E. coli, no nitrosating agent was employed. In one run, for each of the wild type E. coli and the glutathione deficient E. coli, 0.5 mM S-nitrosocysteine (a nitrosating agent) was added after two hours. In one run, for each of the wild type E. coli and the glutathione deficient E. coli, 0.2 mM S-nitrosocysteine was added initially and 0.5 mM S-nitrosocysteine was added at the two hour mark. In each run, starting at the two hour mark and every 15 or 30 minutes thereafter, bacterial cell density (i.e., growth) was measured. […]
# In a second experiment, six runs were carried out the same as in the first experiment. In this case, the results are shown in FIG. 2 where bacterial growth (measured as optical density (O.D.) 600 nm) is plotted on a log axis versus time (after two hours) and where “wt” and the plus and minus sign mean the same as in FIG. 1 and “gsh^−” means glutathione deficient E. coli. […]
# [5] = test system: benign prostatic hypertrophy; assay: Patients with benign prostatic hypertrophy; type: in vivo; details: prostate-implanted polymer pellets releasing each agent at 1 μmol/hr
# Source text: A person presents with a history of urinary hesitancy and multiple awakenings during the night. They are given a diagnosis of benign prostatic hypertrophy. Under stereotactic guidance, the patient's enlarged prostate gland is implanted with several porus polymer pellets designed to slowly release L-buthionine-S-sulfoximine (1 μmol/hr) and S-nitrosocysteine (1 μmol/hr). […] They then have nearly normal urine flow and usually wakes no more than once per night.
# A similar patient with benign prostatic hypertrophy and very marked enlargement of their prostate is treated with NO-substituted finasteride (NO-substituted Proscar; 5 mg/day). NO-substitution is accomplished by replacement of the tert-butyl amine moiety of finasteride with S-nitroso-β-thio-tert-butyl amine.
# A person with benign prostatic hypertrophy is treated with Finisteride (Proscar: 5 mg/day) and oral buthionine-S-sulfoximine at a dose of 10 mmol/kg four time/day.
# restenosis [6] = assay: Patients with coronary stenosis treated to prevent restenosis; type: in vivo; remark: listed apart in the source
# [7] = molecular target: T1, gamma-glutamylcysteinyl synthetase (gamma-GCS) (Rattus norvegicus, UniProt P19468); details: mammalian systems, literature; cited from earlier work
# T1 sequence (P19468 1-637): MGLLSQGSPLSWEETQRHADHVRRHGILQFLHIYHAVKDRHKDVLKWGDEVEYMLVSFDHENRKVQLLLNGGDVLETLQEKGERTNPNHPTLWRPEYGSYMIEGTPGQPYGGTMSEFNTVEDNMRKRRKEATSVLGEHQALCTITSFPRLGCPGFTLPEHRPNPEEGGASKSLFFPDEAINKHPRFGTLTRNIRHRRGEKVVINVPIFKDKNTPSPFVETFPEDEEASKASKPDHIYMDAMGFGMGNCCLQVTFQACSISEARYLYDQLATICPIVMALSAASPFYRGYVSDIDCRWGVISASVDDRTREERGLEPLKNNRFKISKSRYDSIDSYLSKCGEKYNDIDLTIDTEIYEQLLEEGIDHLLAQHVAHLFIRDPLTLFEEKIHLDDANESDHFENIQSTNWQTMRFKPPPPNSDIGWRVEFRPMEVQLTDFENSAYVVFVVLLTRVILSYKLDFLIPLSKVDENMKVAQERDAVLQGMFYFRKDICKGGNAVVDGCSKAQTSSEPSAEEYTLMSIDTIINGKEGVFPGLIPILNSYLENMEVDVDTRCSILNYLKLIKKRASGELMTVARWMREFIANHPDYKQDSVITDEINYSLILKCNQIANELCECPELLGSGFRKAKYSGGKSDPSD
# T1 sequence (P48508 1-274 partner): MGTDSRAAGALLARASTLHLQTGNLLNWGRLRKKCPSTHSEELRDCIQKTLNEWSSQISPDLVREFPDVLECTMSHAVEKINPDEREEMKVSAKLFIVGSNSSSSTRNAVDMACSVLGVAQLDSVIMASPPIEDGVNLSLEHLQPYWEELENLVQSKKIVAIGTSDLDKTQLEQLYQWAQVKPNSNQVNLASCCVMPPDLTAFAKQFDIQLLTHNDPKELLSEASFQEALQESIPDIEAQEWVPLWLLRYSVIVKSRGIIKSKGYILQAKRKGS
# glutamine synthetase = details: mammalian systems, literature; cited from earlier work
# Salmonella = assay: Patients with Salmonella septicemia or gastroenteritis; type: in vivo; details: septicemia; sodium nitrate 200 mg/kg i.v. twice a day and ethacrynic acid 50 mg four times a day p.o.
# oral thrush = assay: Patients with oral thrush; type: in vivo; details: 5 cc of 10 mM solution
# Experimental: An immunocompromised person who is status-post recent chemotherapy develops oral thrush.
# A person with leukemia develops oral thrush and is given 2 cc of 50 mM S-nitrosoglutathione, swish and spit, three times/day.
# An immunocompromised person with HIV and a low CD4 count develops oral thrush. They are given 5 cc of a solution of 10 mM nitrate.
# [8] = 32P-implanted stent, S-nitrosocysteine and ethacrynic acid 50–200 mg twice a day p.o.
# [9] = stent coated with porous polymer containing 10% ferrioxamine B and 0.1% each of interleukin-1 and interferon-gamma
compound,measurement,setting,value
dinitrophenacyl glutathione,clinical outcome,[1],culture of the ulcer becomes sterile over three days
CN(C)c1ccc2nc3ccc(=[N+](C)C)cc-3sc2c1 [methylene blue],time to restored blood pressure,E. coli; nitrosated chloramphenicol 12.5 mg four times/day IV with methylene blue IV 5 mg/kg and fluid support,24 h
N[C@@H](Cc1ccc(N(CCCl)CCCl)cc1)C(=O)O [melphalan],clinical outcome,restenosis [2]; stent coated with ONO-substituted polymer with 10% melphalan attached,clinical restenosis does not occur
same,clinical outcome,[3]; po,symptoms resolve
N[C@@H](CSN=O)C(=O)O [S-nitrosocysteine],effect of pretreatment on later treatment,"[4]; 0.2 mM pretreatment, 0.5 mM at two hours",Induces Resistance to Later Treatment with Nitrosating Agent
same,bacterial growth,"[4]; 0.5 mM added at two hours, with or without 0.2 mM pretreatment",reduces rate of bacterial growth
same,clinical outcome,E. coli; 100 nmol/kg i.v. alone,partial remission in their disease accompanied by mild hypotension
same,clinical outcome,E. coli; S-nitrosocysteine continued plus desferoximine 1 gm then 0.5 gm every 4 hr for two days,relief of hypotension and complete resolution of septicemia
same,clinical outcome,[5],symptoms improve over a period of three weeks
same,clinical outcome,restenosis [6]; [8],symptoms improve
same,clinical outcome,restenosis [6]; BSO-releasing polymer stent and S-nitrosocysteine 100 nmol/kg intracoronary infusion,follow-up angiogram shows no restenosis
same,clinical outcome,"restenosis [6]; S-nitrosocysteine 100 nmol/kg six times a day for one week intracoronary, 32P-implanted stent",successfully prevents restenosis
CC(=O)N([O-])CCCCCNC(=O)CCC(=O)N([O-])CCCCCNC(=O)CCC(=O)N([O-])CCCCCN.[Fe+3] [ferrioxamine B],clinical outcome,E. coli; 10 mg/kg with IV ampicillin and gentamicin,does not develop the clinical syndrome of hypotension and organ failure
same,clinical outcome,restenosis [2]; [9],restenosis does not occur
CC[C@@H](CO)NCCN[C@@H](CC)CO [ethambutol],adverse effects,[3],loss of color vision and gastrointestinal intolerance
CCC[S@](=N)(=O)CCC(N)C(=O)O (mixture of isomers) [DL-prothionine-SR-sulfoximine],inhibition of gamma-GCS,[7],inhibited
same,inhibition of glutamine synthetase,glutamine synthetase,did not significantly inhibit
O=[N+]([O-])[O-].[Na+] [sodium nitrate],clinical outcome,Salmonella,symptoms resolve in two days
CCOC(=O)/C=C\C(=O)OCC [ethyl maleate],clinical outcome,restenosis [2]; stent coated with cyclodextran polymer with ethyl maleate attached by ester linkage,clinical restenosis does not occur
O=[N+]([O-])O [nitrate],clinical outcome,oral thrush,thrush resolves
C=C(CC)C(=O)c1ccc(OCC(=O)O)c(Cl)c1Cl [ethacrynic acid],clinical outcome,Salmonella,symptoms resolve in two days
same,clinical outcome,restenosis [6]; [8],symptoms improve
CCC(N)(CCS(C)(=N)=O)C(=O)O (racemic) [α-ethyl-DL-methionine-SR-sulfoximine],inhibition of gamma-GCS,[7],did not significantly inhibit
same,inhibition of glutamine synthetase,glutamine synthetase,inhibited
CC(C[C@H](N)C(=O)O)SN=O (stereo partly drawn) [S-nitroso-gamma-methyl-L-homocysteine],clinical outcome,"E. coli; septicemia and urinary tract infection, α-ethyl BSO 4 mmol/kg four times a day p.o., S-nitroso-gamma-methyl-L-homocysteine 50 μg/kg i.v., gentamicin",symptoms resolve and blood and urine cultures are negative for E. coli after two weeks
interleukin-1,clinical outcome,restenosis [2]; [9],restenosis does not occur
interferon-gamma: cytokine inducing inducible nitric oxide synthase,clinical outcome,restenosis [2]; [9],restenosis does not occur
C[C@@H]1[C@H](O)[C@@H](C)/C=C/C=C/C=C/C=C/C=C/C=C/C=C/[C@H](O[C@@H]2O[C@H](C)[C@@H](O)[C@H](N)[C@@H]2O)C[C@@H]2O[C@](O)(C[C@@H](O)C[C@@H](O)[C@H](O)CC[C@@H](O)C[C@@H](O)CC(=O)O[C@H]1C)C[C@H](O)[C@H]2C(=O)O [amphotericin B],adverse effects,"Histoplasma capsulatum; 1 mg/day i.v., after one week",elevated blood urea nitrogen level and other evidence of renal failure
same,clinical outcome,Histoplasma capsulatum; dose reduced to 0.5 mg/day,no resolution of disease
CS(=N)(=O)CC[C@H](N)C(=O)O (stereo partly shown) [methionine sulfoximine],inhibition of gamma-GCS,[7],potently inhibits
same,inhibition of glutamine synthetase,glutamine synthetase,potently inhibits
